Laboratory results from ChEMBL document CHEMBL4420076, “Amylin and calcitonin receptor agonist” (2017).
Numbered stars: 1 amine (or outer) side, 2 acyl side, 3 side chain; on linkers, the order of the positions; unused ones are H or OH. Peptide text beside a SMILES is read from it. * marks the point of attachment. C18 diacid = O=C(O)CCCCCCCCCCCCCCCCC(=O)*; γGlu = O=C(O)[C@H](CCC(=O)[*:2])N[*:1]

What was measured:
Rattus norvegicus [1] = assay: Reduction in food intake in Sprague-Dawley rat at 3 nmol/kg measured 0 to 24 hrs post dose relative to control; type: functional; design: scale not given: the % may be the effect or the level left
Rattus norvegicus [2] = assay: Reduction in food intake in Sprague-Dawley rat at 3 nmol/kg measured 24 to 48 hrs post dose relative to control; type: functional; design: scale not given: the % may be the effect or the level left
[3] = molecular target: T1, Amylin receptor AMY3; CALCR/RAMP3 (Homo sapiens, UniProt O60896+P30988); assay: Agonist activity at human amylin receptor expressed in BHK570 cells co-expressing RAMP3 assessed as increase in intracellular cAMP concentration incubated for 3 hrs in presence of 10% FBS by CRE luciferase reporter gene assay; type: functional, cell-based
T1 sequence (P30988 whole entry): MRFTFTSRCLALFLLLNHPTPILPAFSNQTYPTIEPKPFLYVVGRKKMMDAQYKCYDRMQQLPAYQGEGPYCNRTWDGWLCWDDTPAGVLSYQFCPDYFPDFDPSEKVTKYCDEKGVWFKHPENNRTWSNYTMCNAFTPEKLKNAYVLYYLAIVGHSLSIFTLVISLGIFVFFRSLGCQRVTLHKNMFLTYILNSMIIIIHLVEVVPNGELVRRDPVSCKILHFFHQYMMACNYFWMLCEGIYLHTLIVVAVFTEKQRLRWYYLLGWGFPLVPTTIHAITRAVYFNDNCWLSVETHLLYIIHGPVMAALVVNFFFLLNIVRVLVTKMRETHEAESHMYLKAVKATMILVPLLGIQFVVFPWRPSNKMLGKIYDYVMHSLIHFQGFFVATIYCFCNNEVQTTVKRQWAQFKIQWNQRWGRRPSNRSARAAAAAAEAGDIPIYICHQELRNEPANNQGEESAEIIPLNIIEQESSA
T1 sequence (O60896 whole entry): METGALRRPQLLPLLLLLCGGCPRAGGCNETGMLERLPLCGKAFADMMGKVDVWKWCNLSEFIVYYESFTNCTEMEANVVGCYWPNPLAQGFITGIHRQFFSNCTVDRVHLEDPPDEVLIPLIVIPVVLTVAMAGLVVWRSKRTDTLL

Calcitonin receptor [4] = molecular target: T2, Calcitonin receptor (Homo sapiens, UniProt P30988); assay: Agonist activity at human calcitonin receptor expressed in BHK570 cells assessed as increase in intracellular cAMP concentration incubated for 3 hrs in presence of 10% FBS by CRE luciferase reporter gene assay; type: functional, cell-based
T2 sequence (P30988 whole entry): T1 sequence (P30988 whole entry)

[5] = Stability in pH 7.5 buffer assessed as lag time for fibril formation at 1 uM by Thioflavin T based fluorescence assay; type: physicochemical; conditions: pH 7.5, 1 µM
[6] = Stability in pH 7.5 buffer assessed as compound recovery at 1 uM by Thioflavin T based fluorescence assay; type: physicochemical; conditions: read-out: Drug recovery
[7] = Solubility in 100 mM glycylglycine buffer at pH 3.0 incubated for 18 hrs by UPLC analysis; type: physicochemical
[8] = Solubility in 100 mM glycylglycine buffer at pH 4.0 incubated for 18 hrs by UPLC analysis; type: physicochemical
[9] = Solubility in 100 mM bistrispropane buffer at pH 6.0 incubated for 18 hrs by UPLC analysis; type: physicochemical
[10] = Solubility in 100 mM bistrispropane buffer at pH 6.5 incubated for 18 hrs by UPLC analysis; type: physicochemical
[11] = Solubility in 100 mM bistrispropane buffer at pH 7.0 incubated for 18 hrs by UPLC analysis; type: physicochemical
[12] = Solubility in 100 mM bistrispropane buffer at pH 7.5 incubated for 18 hrs by UPLC analysis; type: physicochemical
[13] = Solubility in 100 mM bistrispropane buffer at pH 8.0 incubated for 18 hrs by UPLC analysis; type: physicochemical
[14] = molecular target: T1, Amylin receptor AMY3; CALCR/RAMP3; assay: Displacement of [125I]-labeled rat amylin from human amylin receptor expressed in BHK570 cell membranes co-expressing RAMP3 incubated for 120 mins by scintillation proximity assay
Calcitonin receptor [15] = molecular target: T2, Calcitonin receptor; assay: Displacement of [125I]-labeled human calcitonin from human calcitonin receptor expressed in BHK tkts13 cell membranes incubated for 1 hr by scintillation proximity assay

- EC50 [3]: 0.07 nM
- EC50 (Calcitonin receptor [4]): 0.053 nM
- Time [5]: > 45 h
- remaining at 1 µM [6]: 100%
- solubility at 18 h [7]: ≥ 200 µM
- solubility at 18 h [8]: ≥ 200 µM
- solubility at 18 h [9]: ≥ 200 µM
- solubility at 18 h [10]: ≥ 200 µM
- solubility at 18 h [11]: ≥ 200 µM
- solubility at 18 h [12]: ≥ 200 µM
- solubility at 18 h [13]: ≥ 200 µM
- IC50 [14]: 0.122 nM
- IC50 (Calcitonin receptor [15]): 0.057 nM
SMILES: CC(C)C[C@H](NC(=O)CNC(=O)[C@H](CO)NC(=O)[C@H](C)NC(=O)CC[C@H](NC(=O)CCCCCCCCCCCCCCCCC(=O)O)C(=O)O)C(=O)N[C@@H](CO)C(=O)N[C@H](C(=O)N[C@@H](C)C(=O)N[C@@H](C)C(=O)N[C@@H](CC(C)C)C(=O)NCC(=O)N[C@@H](CCCNC(=N)N)C(=O)N[C@@H](CC(C)C)C(=O)N[C@@H](CO)C(=O)N[C@@H](CCC(N)=O)C(=O)N[C@@H](CCC(=O)O)C(=O)N[C@@H](CC(C)C)C(=O)N[C@@H](Cc1cnc[nH]1)C(=O)N[C@@H](CCC(=O)O)C(=O)N[C@@H](CC(C)C)C(=O)N[C@@H](CCC(N)=O)C(=O)N[C@H](C(=O)N[C@@H](Cc1ccc(O)cc1)C(=O)N1CCC[C@H]1C(=O)N[C@@H](CCCNC(=N)N)C(=O)N[C@H](C(=O)N[C@@H](CCC(=O)O)C(=O)N[C@H](C(=O)NCC(=O)N[C@@H](CO)C(=O)NCC(=O)N[C@H](C(=O)N[C@@H](Cc1ccc(O)cc1)C(N)=O)[C@@H](C)O)[C@@H](C)O)[C@@H](C)O)[C@@H](C)O)[C@@H](C)O ({C18 diacid-γGlu}-ASGLSTAALGRLSQELHELQTYPRTETGSGTY-NH2)
- Activity (Rattus norvegicus [1]): 44%
- Activity (Rattus norvegicus [2]): 8%
